pEC50: −log10 of the molar value.
Molecular target: T1, Na+/K+-ATPase
T1 construct: gene ATP1A1
Test: in vitro enzymatic assay, inorganic phosphate release during ATP hydrolysis (Taussky-Shorr, […] nm)
Assay type: biochemical

## C[C@H]1O[C@@H](O[C@H]2[C@@H](O)C[C@H](O[C@H]3[C@@H](O)C[C@H](O[C@H]4CC[C@@]5(C)[C@H](CC[C@@H]6[C@@H]5CC[C@]5(C)[C@@H](C7=CC(=O)OC7)CC[C@]65O)C4)O[C@@H]3C)O[C@@H]2C)C[C@H](O)[C@@H]1O [Digitoxin]
  pEC50: 6.11

— article PMC6274445, “Compound Library Screening Identified Cardiac Glycoside Digitoxin as an Effective Growth Inhibitor of Gefitinib-Resistant Non-Small Cell Lung Cancer via Downregulation of α-Tubulin and Inhibition of Microtubule Formation” (Molecules, 2016)
